Active and inactive are the calls of the source.
Key:
Protein skinhead-1 = target: T1, Protein skinhead-1 (Caenorhabditis elegans, UniProt P34707); type: functional
T1 sequence (P34707 whole entry): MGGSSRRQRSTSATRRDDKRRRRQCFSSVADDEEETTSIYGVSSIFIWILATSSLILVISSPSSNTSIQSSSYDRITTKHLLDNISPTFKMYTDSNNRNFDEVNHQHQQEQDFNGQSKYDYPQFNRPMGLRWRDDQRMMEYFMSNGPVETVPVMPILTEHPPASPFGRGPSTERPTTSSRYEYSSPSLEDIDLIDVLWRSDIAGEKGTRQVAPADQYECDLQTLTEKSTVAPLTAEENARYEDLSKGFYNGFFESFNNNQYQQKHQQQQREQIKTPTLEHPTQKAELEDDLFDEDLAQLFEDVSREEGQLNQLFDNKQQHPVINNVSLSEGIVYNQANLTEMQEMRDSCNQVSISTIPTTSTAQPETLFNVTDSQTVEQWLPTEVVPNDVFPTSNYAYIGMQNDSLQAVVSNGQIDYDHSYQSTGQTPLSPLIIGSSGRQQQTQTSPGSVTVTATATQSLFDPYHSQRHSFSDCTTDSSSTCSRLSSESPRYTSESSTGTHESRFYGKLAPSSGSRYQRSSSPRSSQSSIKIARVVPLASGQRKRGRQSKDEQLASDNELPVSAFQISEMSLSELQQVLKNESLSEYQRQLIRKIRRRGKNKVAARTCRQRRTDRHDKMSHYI

[1] = viability of uninfected HEp-2 cells – cell-based, HTS, cytotoxicity control for RSV inhibitor project, dose response (AID 2410); type: functional; settings: human respiratory syncytial virus
[2] = target: T2, Ubiquitin-conjugating enzyme E2 N (Homo sapiens, UniProt P61088); type: functional;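 note: Dose-response confirmation in a TR-FRET assay detecting UBC13-driven polyubiquitin chain formation, inhibition measured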
T2 sequence (P61088 whole entry): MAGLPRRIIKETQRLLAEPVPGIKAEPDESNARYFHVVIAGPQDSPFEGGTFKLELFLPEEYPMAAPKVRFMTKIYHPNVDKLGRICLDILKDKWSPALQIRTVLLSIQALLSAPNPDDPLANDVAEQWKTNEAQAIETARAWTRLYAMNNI

Vero [3] = assay: cells; type: functional; settings: Chlorocebus sabaeus
[4] = Luminescence Cell-Based Dose Confirmation HTS to Identify Activators of 5'UTR Stem-Loop Driven Alpha-Synuclein mRNA Translation in H4 Neuroglioblastoma Cells. [Related pubchem assays: 1829 (Project Summary), 1814 (Primary HTS)]; type: functional
[5] = Luminescence Cell-Based Dose Response HTS to Identify Activators of Luciferase Translation or Activity in H4 […] Cells. [Related pubchem assays: 1829 (Project Summary), 1814 (Primary HTS)]; type: functional
[6] = system: Streptococcus sp. 'group A'; assay: Streptococcus pyogenes SK(-)GAS viability under kanamycin – luminescence, BacTiterGlo, confirmation, counter-screen for streptokinase expression inhibitor project, dose response (AID 1900); type: functional, organism-based
H4 = assay: Luminescence Cell-Based Dose Response HTS to Identify Activators of 5'UTR Stem-Loop Driven Prion Protein mRNA Translation in H4 Neuroglioblastoma Cells. [Related pubchem assays: 1829 (Project Summary), 1814 (Primary HTS)]; type: functional; settings: Homo sapiens
Streptokinase A = target: T3, Streptokinase A (Streptococcus pyogenes serotype M1, UniProt P10520); assay: viability-normalized secreted streptokinase activity reduction – plasminogen activation absorbance, OD405, dose response (AID 1914); type: functional, Streptococcus pyogenes M1 GAS;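 note: secreted streptokinase activity via plasminogen activation per viability signal from cell pellet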
T3 sequence (P10520 whole entry): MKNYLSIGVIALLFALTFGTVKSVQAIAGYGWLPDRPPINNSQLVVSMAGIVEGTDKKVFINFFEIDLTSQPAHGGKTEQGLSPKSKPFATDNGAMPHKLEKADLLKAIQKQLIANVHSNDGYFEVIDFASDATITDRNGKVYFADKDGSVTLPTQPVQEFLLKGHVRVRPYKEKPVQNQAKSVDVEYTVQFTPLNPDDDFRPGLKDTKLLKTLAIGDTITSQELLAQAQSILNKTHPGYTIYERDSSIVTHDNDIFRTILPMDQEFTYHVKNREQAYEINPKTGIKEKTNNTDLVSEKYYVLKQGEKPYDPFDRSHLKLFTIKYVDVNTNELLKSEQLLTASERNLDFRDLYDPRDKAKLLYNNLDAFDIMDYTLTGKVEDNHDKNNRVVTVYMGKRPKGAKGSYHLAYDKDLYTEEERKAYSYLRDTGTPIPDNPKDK

Streptococcus = assay: GAS UMAA2166 growth inhibition – luminescence, BacTiterGlo, counter-screen for streptokinase expression inhibitor project, dose response (AID 1915); type: functional, organism-based;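 note: potency for reduction of bacterial viability or growth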
Vero [7] = assay: cells; type: functional, cell-based; settings: Chlorocebus sabaeus
Leucine aminopeptidase = target: T4, Leucine aminopeptidase (Plasmodium falciparum 3D7, UniProt Q8IL11); assay: P. falciparum M17LAP inhibitors, primary screen, biochemical, fluorogenic H-Leu-NHMec substrate, 1536-well (AID 1619); type: functional
T4 sequence (Q8IL11 whole entry): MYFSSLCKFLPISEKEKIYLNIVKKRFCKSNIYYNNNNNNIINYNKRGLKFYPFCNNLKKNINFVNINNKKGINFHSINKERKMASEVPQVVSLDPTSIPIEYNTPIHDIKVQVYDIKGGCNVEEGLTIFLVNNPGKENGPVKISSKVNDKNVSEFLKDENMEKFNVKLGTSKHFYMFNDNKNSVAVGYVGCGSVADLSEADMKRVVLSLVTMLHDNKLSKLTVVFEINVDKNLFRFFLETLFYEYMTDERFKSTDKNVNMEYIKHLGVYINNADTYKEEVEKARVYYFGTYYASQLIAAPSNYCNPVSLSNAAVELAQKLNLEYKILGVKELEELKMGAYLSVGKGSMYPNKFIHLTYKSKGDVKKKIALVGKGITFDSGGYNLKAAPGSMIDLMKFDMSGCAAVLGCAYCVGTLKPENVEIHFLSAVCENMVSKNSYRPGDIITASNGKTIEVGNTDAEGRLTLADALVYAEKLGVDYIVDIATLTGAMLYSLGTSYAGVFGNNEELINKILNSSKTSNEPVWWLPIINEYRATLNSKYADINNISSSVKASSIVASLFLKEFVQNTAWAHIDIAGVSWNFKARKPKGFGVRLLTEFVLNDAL

Large T antigen = Large T antigen (Simian virus 40, UniProt P03070); type: functional, Betapolyomavirus macacae;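 note: Confirmatory-stage PubChem screen for compounds that inhibit SV40 T antigen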
Sequence of Large T antigen (P03070 whole entry): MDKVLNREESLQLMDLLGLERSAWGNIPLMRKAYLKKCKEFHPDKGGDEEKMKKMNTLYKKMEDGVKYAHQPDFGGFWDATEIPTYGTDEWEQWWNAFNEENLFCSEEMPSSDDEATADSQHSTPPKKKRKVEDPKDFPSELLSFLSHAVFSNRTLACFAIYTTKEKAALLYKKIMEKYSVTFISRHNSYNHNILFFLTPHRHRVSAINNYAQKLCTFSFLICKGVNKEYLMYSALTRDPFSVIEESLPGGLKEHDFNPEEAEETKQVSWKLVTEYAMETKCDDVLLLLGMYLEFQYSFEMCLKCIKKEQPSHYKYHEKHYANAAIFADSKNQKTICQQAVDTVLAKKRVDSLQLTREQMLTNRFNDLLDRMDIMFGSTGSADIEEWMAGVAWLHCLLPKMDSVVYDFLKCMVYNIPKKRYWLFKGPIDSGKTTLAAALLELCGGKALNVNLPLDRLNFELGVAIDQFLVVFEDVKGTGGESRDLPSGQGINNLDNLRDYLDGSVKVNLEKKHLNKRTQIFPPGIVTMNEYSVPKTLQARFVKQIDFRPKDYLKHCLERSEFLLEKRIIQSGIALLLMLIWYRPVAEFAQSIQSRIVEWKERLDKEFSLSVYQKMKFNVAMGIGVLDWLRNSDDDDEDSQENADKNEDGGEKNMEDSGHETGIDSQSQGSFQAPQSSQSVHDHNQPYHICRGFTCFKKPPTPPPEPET

[8] = microbe, parasite or virus in culture; type: functional; settings: Mycobacterium tuberculosis
[9] = target: Induced myeloid leukemia cell differentiation protein Mcl-1 (Homo sapiens, UniProt Q07820); type: functional
Sequence of Induced myeloid leukemia cell differentiation protein Mcl-1 (Q07820 whole entry): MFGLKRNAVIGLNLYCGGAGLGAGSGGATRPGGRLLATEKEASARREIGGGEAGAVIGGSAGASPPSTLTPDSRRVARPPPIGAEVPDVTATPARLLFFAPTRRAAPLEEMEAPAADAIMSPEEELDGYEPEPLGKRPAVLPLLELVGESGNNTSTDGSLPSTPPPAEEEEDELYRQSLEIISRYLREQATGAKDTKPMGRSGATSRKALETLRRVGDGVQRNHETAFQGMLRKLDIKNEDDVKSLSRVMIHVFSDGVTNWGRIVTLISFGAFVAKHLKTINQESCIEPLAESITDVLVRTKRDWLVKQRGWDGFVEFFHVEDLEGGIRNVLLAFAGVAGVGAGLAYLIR

[10] = target: T5, Corticotropin-releasing factor receptor 2/Corticotropin-releasing factor-binding protein (Homo sapiens, UniProt P24387+Q13324); assay: Dose Response confirmation of uHTS hits for small molecule antagonists of the CRF-binding protein and CRF-R2 receptor complex.; type: functional; settings: read-out: IC50_Mean
T5 sequence (Q13324 whole entry): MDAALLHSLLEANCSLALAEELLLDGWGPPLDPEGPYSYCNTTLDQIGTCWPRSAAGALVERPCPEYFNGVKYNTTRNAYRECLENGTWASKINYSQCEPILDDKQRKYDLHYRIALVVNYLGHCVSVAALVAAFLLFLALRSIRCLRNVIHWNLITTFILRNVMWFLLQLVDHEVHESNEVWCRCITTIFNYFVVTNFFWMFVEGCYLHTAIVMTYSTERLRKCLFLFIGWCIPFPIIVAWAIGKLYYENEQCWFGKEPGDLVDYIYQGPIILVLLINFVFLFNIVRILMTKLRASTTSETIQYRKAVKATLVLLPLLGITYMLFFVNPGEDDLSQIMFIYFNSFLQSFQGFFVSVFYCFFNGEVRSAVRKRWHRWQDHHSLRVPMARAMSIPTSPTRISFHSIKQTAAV
T5 sequence (P24387 whole entry): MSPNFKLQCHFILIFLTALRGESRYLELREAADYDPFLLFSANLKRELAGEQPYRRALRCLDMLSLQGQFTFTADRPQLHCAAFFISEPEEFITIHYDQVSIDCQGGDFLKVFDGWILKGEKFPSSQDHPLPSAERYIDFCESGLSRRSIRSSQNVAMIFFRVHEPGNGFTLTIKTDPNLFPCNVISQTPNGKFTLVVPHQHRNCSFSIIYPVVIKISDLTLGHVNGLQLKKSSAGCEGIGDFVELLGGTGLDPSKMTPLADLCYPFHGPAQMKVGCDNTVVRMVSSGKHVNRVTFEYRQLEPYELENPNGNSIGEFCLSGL

[11] = target: T5, Corticotropin-releasing factor receptor 2/Corticotropin-releasing factor-binding protein; assay: activators of CRF receptor 2 with binding protein – uHTS hits, confirmation (AID 602473); type: functional; settings: read-out: EC50_Mean
Genome polyprotein = Genome polyprotein (dengue virus type 2, UniProt P29990); assay: flavivirus cap methylation enzyme inhibition – biochemical, confirmation dose response, primary screen (AID 588689); type: functional
Sequence of Genome polyprotein (P29990 2492-3391 limits assumed): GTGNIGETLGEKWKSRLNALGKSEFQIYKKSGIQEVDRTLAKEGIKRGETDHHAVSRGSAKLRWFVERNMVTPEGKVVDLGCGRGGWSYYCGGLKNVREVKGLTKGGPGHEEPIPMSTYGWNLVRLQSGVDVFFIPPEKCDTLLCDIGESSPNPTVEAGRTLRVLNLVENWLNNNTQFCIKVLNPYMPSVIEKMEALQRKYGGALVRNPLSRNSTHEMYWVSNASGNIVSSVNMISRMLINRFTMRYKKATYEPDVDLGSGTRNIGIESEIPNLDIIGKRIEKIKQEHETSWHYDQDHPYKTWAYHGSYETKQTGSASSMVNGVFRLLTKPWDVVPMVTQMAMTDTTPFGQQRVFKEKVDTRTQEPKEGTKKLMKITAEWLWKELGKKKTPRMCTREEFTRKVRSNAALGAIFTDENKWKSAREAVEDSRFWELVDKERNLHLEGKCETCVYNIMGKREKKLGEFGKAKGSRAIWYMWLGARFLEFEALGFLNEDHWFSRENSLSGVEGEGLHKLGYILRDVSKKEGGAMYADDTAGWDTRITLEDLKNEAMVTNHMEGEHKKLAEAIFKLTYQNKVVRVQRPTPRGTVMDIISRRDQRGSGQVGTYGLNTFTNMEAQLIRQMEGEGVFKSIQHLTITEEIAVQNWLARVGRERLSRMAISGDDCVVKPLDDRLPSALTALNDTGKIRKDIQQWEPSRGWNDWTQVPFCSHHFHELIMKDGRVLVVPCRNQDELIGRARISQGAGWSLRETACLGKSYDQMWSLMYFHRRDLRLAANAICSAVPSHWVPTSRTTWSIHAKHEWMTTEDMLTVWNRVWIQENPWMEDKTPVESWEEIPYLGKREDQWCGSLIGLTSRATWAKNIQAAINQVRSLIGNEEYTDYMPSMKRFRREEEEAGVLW

[12] = P. falciparum Dd2 growth inhibitors, dose response, SYBR Green, cherry-picked samples (AID 1159567); type: functional, cell-based

## N#C/C(=C\c1ccc(Cl)cc1Cl)c1n[nH]c(Cn2cncn2)n1
Protein skinhead-1
  IC50: > 100 µM (inactive)

## CCN(c1ccccc1)S(=O)(=O)c1cccc(C(=O)Nc2ccc(C)cn2)c1
[1]
  CC50: 30.3 µM (active)
Protein skinhead-1
  IC50: > 100 µM (inactive)

## COc1cc(C(CCN2CCCCC2)c2c(OC)cc(OC)c3c(-c4ccccc4)cc(=O)oc23)cc(OC)c1OC (centres undefined)
[2]
  IC50: > 20 µM (inactive)
Vero [3]
  CC50: > 25 µM (active)

## CC1CC(C)CN(Cc2nc(N)nc(Nc3ccc4ccccc4c3)n2)C1 (centres undefined)
[4]
  EC50: > 60 µM (not active)
[5]
  EC50: 12.9 µM (active)
[6]
  EC50: > 150 µM (not active)
H4
  EC50: > 120 µM (not active)
Streptokinase A
  EC50: > 150 µM (not active)
Streptococcus
  EC50: > 150 µM (not active)
Vero [7]
  IC50: > 25 µM (active)
Vero [3]
  CC50: 14.1 µM (active)

## Nc1nc2c(s1)C(=O)CC(c1ccccc1)C2 (centres undefined)
Leucine aminopeptidase
  IC50: 58.8 µM (active)

## Nc1ccc(OCCCc2c(N)nc(N)nc2N)cc1
Large T antigen
  IC50: 7.73 µM (active)
[2]
  IC50: > 20 µM (inactive)

## O=C(NCc1ccco1)C1CC(=O)N(c2ccc(O)cc2)C1 (centres undefined)
Large T antigen
  IC50: 19.8 µM (active)

## CCn1c(SCC(=O)Nc2nc3ccc(C)cc3s2)nc2c(c1=O)SC(C)C2 (centres undefined)
[8]
  CC50: > 40 µM (active)

## CC1=C(C#N)C(=O)N(C2CCS(=O)(=O)C2)C(=O)/C1=C\c1ccc(C)o1 (centres undefined)
Large T antigen
  IC50: 47.9 µM (active)
[9]
  IC50: 1.6 µM (active)

## Cc1ccc(NC(=O)CSc2nnc[nH]2)cc1
Leucine aminopeptidase
  IC50: 34 µM (active)

## O=C(Cc1nnc(O)c2ccccc12)OCc1c(Cl)cccc1Cl
Vero [7]
  IC50: 8 µM (active)

## N#CC1=C(N)N(c2ccc(F)cc2)C2=C(C1c1ccc(O)cc1)S(=O)(=O)CC2 (centres undefined)
Protein skinhead-1
  IC50: > 100 µM (inactive)

## O=C(CSc1ccccc1)NN1C(=O)c2ccccc2C1=O
Leucine aminopeptidase
  IC50: 54.4 µM (active)
[10]
  IC50: > 47.1 µM (inactive)
[11]
  EC50: > 53 µM (inactive)

## Nc1nc(O)c2c(n1)N=C1C(=C(O)c3ccccc31)C2c1cccc2ccccc12 (centres undefined)
[9]
  IC50: 3.73 µM (active)

## COc1ccc(OC)c(C(=O)C2COC(=O)C2)c1 (centres undefined)
Protein skinhead-1
  IC50: > 100 µM (inactive)

## Oc1cc2c(cc1O)[C@H]1c3ccccc3CN[C@@H]1CC2
Large T antigen
  IC50: 80 µM (active)

## COc1ccc(/C=C/C(=O)c2ccc(O)cc2)cc1CN1CCOCC1
Vero [7]
  IC50: 8.49 µM (active)
Vero [3]
  CC50: > 25 µM (active)

## Nc1ccc2c(c1)sc1ccccc12
Protein skinhead-1
  IC50: 29 µM (active)

## O=C1Cc2ccccc2Sc2ccc(O)cc21
[2]
  IC50: > 20 µM (inactive)
[11]
  EC50: > 53 µM (inactive)

## c1ccc2c(c1)CCN(c1nc(CN3CCOCC3)nc3sc4c(c13)CCCC4)C2
[8]
  CC50: > 40 µM (active)

## CN(C)C(S)=Nc1ccc(N2CCOCC2)cc1
Large T antigen
  IC50: 11 µM (active)

## COc1cc(C=C(C(C)=O)C(C)=O)ccc1O
Large T antigen
  IC50: 8.18 µM (active)

## O=C(/C=C\c1ccco1)c1ccc(NC(=O)c2ccco2)cc1
[9]
  IC50: 2.78 µM (active)

## CC(=O)/C(C#N)=C1\NC(=O)C(Cc2ccc(C)c(C)c2)S1 (centres undefined)
Vero [7]
  IC50: 5.04 µM (active)
Vero [3]
  CC50: > 25 µM (active)

## CC1=NN(c2ccccc2)C(=O)/C1=C/c1ccc(-c2ccc(C)c(C(=O)O)c2)o1
Large T antigen
  IC50: 35 µM (active)

## Cc1c(Nc2nc3ccccc3nc2NS(=O)(=O)c2ccccc2)c(=O)n(-c2ccccc2)n1C
Leucine aminopeptidase
  IC50: 68.1 µM (active)

## CCCOC(=O)c1c(NC(=O)C2C3C=CC(C3)C2C(=O)O)sc2c1CCC(C)C2 (centres undefined)
Genome polyprotein
  IC50: 50.3 µM (active)

## CC(=O)c1ccc(OCCCC(=O)n2nnc3ccccc32)cc1
Leucine aminopeptidase
  IC50: 61.9 µM (active)

## O=C(c1cnn(C(=O)c2ccccc2)c1)c1ccccc1O
Leucine aminopeptidase
  IC50: 72.6 µM (active)

## COc1ccc(OC)c(NC(=O)[C@H]2CC=CC[C@H]2C(=O)O)c1
Leucine aminopeptidase
  IC50: 18.5 µM (active)

## O=C(CSc1nnnn1C1CCCCC1)Nc1nc2c(s1)CCCC2
[8]
  CC50: > 40 µM (active)

## Cc1c(/C=N/NC(=O)c2cccs2)c2ccccc2n1Cc1ccccc1Cl
Vero [7]
  IC50: > 25 µM (active)
Vero [3]
  CC50: > 25 µM (active)

## CCc1cc(/C(Cc2ccccn2)=N\Nc2ccccc2)c(O)cc1O
[8]
  CC50: > 40 µM (active)

## CCc1ccc(/N=C\C23c4ccccc4C(c4ccccc42)C2C(=O)N(c4ccc(OC)cc4)C(=O)C23)cc1 (centres undefined)
[8]
  CC50: > 40 µM (active)

## COc1ccc2c3c([nH]c2c1)[C@H](CO)N(Cc1ccccc1Cl)CC31CN(C(C)=O)C1
[12]
  AC50: 5.9 µM (active)

## COc1ccc2c3c([nH]c2c1)[C@@H](CO)N(Cc1ccc(Cl)cc1)CC31CCN(Cc2nccs2)CC1
[12]
  AC50: 4.65 µM (active)

## O=C(Nc1ccc(Cl)c(Cl)c1)c1ccccc1
Protein skinhead-1
  IC50: > 100 µM (inactive)

Reference: ChEMBL document CHEMBL1201862, “PubChem BioAssay data set” (2004)
